Patent US8946205B2, “1,2,4-triazolo[4,3-a]pyridine derivatives and their use as positive allosteric modulators of mGluR2 receptors” (Janssen Pharmaceuticals, Inc., priority 2009, dated 2015)
Where two headings read alike, the source gives them in different places.

Columns and labels:
human mGluR2 receptor = target: T1, human mGluR2 receptor (Homo sapiens, UniProt Q14416); test: [35S]GTPγS binding assay (PAM assay, membranes from CHO cells transfected with the human mGluR2 receptor); assay type: biochemical; settings: in presence of glutamate at EC20; pEC50 = -log EC50 (mol/L); read-out: GTPγS-hR2 PAM pEC50 (converted)
T1 construct: expressed in transfected cells; host or cells: CHO cells (membranes)
Experimental: The [^35S]GTPγS binding assay is a functional membrane-based assay used to study G-protein coupled receptor (GPCR) function whereby incorporation of a non-hydrolysable form of GTP, [^35S]GTPγS (guanosine 5′-triphosphate, labelled with […] ^35S), is measured. The G-protein α subunit catalyzes the exchange of guanosine 5′-diphosphate (GDP) by guanosine triphosphate (GTP) and on activation of the GPCR by an agonist, [^35S]GTPγS, becomes incorporated and cannot be cleaved to continue the exchange cycle (Harper (1998) Current Protocols in Pharmacology 2.6.1-10, John Wiley & Sons, Inc.). […] Here we describe the use of the [^35S]GTPγS binding assay using membranes from cells transfected with the human mGluR2 receptor and adapted from Schaffhauser et al. ((2003) Molecular Pharmacology 4:798-810) for the detection of the positive allosteric modulation (PAM) properties of the compounds of this invention.
CHO-cells were cultured to pre-confluence and stimulated with 5 mM butyrate for 24 h, prior to washing in PBS, and then collected by scraping in homogenisation buffer (50 mM Tris-HCl buffer, pH 7.4, 4° C.). Cell lysates were homogenized briefly using an ultra-turrax homogenizer. The homogenate was centrifuged at 16,000 RPM (Sorvall RC-5C plus rotor SS-34) for 10 minutes and the supernatant discarded. The pellet was resuspended in 5 mM Tris-HCl, pH 7.4 and centrifuged again (18,000 RPM, 20 min, 4° C.). The final pellet was resuspended in 50 mM Tris-HCl, pH 7.4 and stored at −80° C. in appropriate aliquots before use. Protein concentration was determined by the Bradford method (Bio-Rad, USA) with bovine serum albumin as standard.
Measurement of mGluR2 positive allosteric modulatory activity of test compounds was performed as follows. Test compounds and glutamate were diluted in assay buffer containing 10 mM HEPES acid, 10 mM HEPES salt, pH 7.4, 100 mM NaCl, 3 mM MgCl2 and 10 μM GDP. Human mGlu2 receptor-containing membranes were thawed on ice and diluted in assay buffer supplemented with 14 μg/ml saponin. Membranes were pre-incubated with compound alone or together with a predefined (˜EC20) concentration of glutamate (PAM assay) for 30 min at 30° C. After addition of [^35S]GTPγS (f.c. 0.1 nM) microplates were shaken briefly and further incubated to allow [^35S]GTPγS incorporation on activation (30 minutes, 30° C.). Final assay mixtures contained 7 μg of membrane protein in 10 mM HEPES acid, 10 mM HEPES salt, pH 7.4, 100 mM NaCl, 3 mM MgCl2,10 μM GDP and 10 μg/ml saponin. Total reaction volume was 200 μl. Reactions were terminated by rapid filtration through Unifilter-96 GF/B filter plates (Packard, Meriden, Conn.) using a 96-well Packard filtermate harvester. Filters were washed 6 times with ice-cold 10 mM NaH2PO4/10 mM Na2HPO4, pH 7.4. Filters were then air-dried, and 40 μl of liquid scintillation cocktail (Microscint-O) was added to each well. Membrane-bound radioactivity was counted in a Microplate Scintillation and Luminescence Counter from Packard.
The concentration-response curves of representative compounds of the present invention—obtained in the presence of EC20 of mGluR2 agonist glutamate to determine positive allosteric modulation (PAM)—were generated using the Lexis software interface (developed at J&J). Data were calculated as % of the control glutamate response, defined as the maximal response that is generated upon addition of glutamate alone. Sigmoid concentration-response curves plotting these percentages versus the log concentration of the test compound were analyzed using non-linear regression analysis. The concentration producing half-maximal effect is then calculated as EC50. The pEC50 values below are calculated as the −log EC50 (wherein EC50 is expressed in mol/L). […]

male NMRI mice = test: Phencyclidine (PCP)-induced hyperlocomotion in mice (video tracking); assay type: in vivo; settings: for ED50: Mus musculus, sc, PCP 5 mg/kg s.c., criterion total distance <5500 counts, read-out: ED50 PCP-Inh. (inhibition of PCP-induced hyperlocomotion)
Experimental: On the day of experiments, the mice were brought into the procedural room. They were housed individually and allowed to acclimate for at least a half hour prior to testing. Although the studies were conducted during the light cycle (from 8:00 to 16:00 h), the procedure room was only sparsely lit (3 to 30 LUX) to provide better contrast for the video tracking. Local lighting was used for the injection procedures. During each trial, an individual mouse was placed in an open field arena (grey PVC cylinder with a height of 40 cm and a diameter of 22.5 cm). Each arena was placed on an infrared LED (8×8 LEDs)-lit box (white PVC squared box; 40×40 cm^2; height 12.5 cm). Each mouse was placed in the center of the arena and allowed to explore freely for 30 min. After each trial, the arena was cleaned with a wet and subsequently with a dry cleaning cloth. An infrared sensitive tube camera and a white light source (in arena: 4-7 LUX) were mounted to the ceiling above the observation chamber to record and input activity to a computer. Animal behavior was recorded and analyzed using the Noldus Ethovision XT Video Tracking System (Version 3.1; Noldus, Wageningen, The Netherlands). The total distance traveled (cm) was calculated. Data were then exported to data management systems for further analysis and reporting. Phencyclidine (PCP)-Induced Hyperlocomotion in Mice Test compound or solvent was administered at a pre-defined time before measurement (standard: 30 min) to male NMRI mice that were challenged with phencyclidine (PCP; 5 mg/kg, s.c.) 30 min before measurement. Activity was measured for a period of 30 min. Criterion for drug-induced inhibition of hyperlocomotion: total distance<5500 counts (3.9% false positives in controls; n=154). Conditioned Avoidance Response (CAR) Test Apparatus The apparatus consisted of an inner box surrounded by an outer box. The inner box was composed of four walls of transparent, synthetic material (length×width×height: 30×30×30 cm), an open top, and a grid floor made of 15 pairs of iron bars (2 mm diameter; 6 mm inter-bar distance). Odd and even bars were connected with a source of alternative current (1.0 mA; Coulbourn Instruments Solid State Shocker/Distributor), which could be interrupted by a switch. The outer box was composed of the same material (length×width×height: 40×40×36 cm), also with an open top, with a distance of 5 cm between the inner and outer box on all sides. To decrease the amount of environmental stimuli, three walls of the outer box were made non-transparent. The front wall was left transparent to allow the necessary inspection of the animal during the test. The upper edge of the outer and inner box served as a target for the rats on which to jump with fore- and hind-paws, respectively. Avoidance Conditioning and Selection of Animals From their arrival in the laboratory on the experimental day, male Wiga Wistar rats (230±30 g) were housed in individual cages provided with bedding material. […] Experimental Sessions The rats were tested 3 times, i.e. at 60, 90 and 120 min after the injection of test compound or solvent. Latency to avoidance was recorded. The median avoidance response obtained over the three experimental sessions for each rat were used for further calculations. […] Sleep Wake Electroencephalography (SW-EEG) in Rats SW-EEG analyses are a highly sensitive read-out of a compound's central functional activity that may provide additional insight in the potential therapeutic application (i.e. via drug classification fingerprinting). […] Internal efforts have confirmed that this effect is mGlu2 receptor-mediated, i.e. is absent in mGlu2 KO mice. Sleep abnormalities are often associated with CNS disorders; as such, the potential use of mGlu2 modulators could also have benefit in the treatment of CNS disorders in which (REM) sleep aberrations are manifested. […]

male Wiga Wistar rats = test: Conditioned avoidance response (CAR) test in rats; assay type: in vivo; settings: for ED50: Rattus norvegicus, criterion median avoidance latency >8 s
Experimental: On the day of experiments, the mice were brought into the procedural room. They were housed individually and allowed to acclimate for at least a half hour prior to testing. Although the studies were conducted during the light cycle (from 8:00 to 16:00 h), the procedure room was only sparsely lit (3 to 30 LUX) to provide better contrast for the video tracking. Local lighting was used for the injection procedures. During each trial, an individual mouse was placed in an open field arena (grey PVC cylinder with a height of 40 cm and a diameter of 22.5 cm). Each arena was placed on an infrared LED (8×8 LEDs)-lit box (white PVC squared box; 40×40 cm^2; height 12.5 cm). Each mouse was placed in the center of the arena and allowed to explore freely for 30 min. After each trial, the arena was cleaned with a wet and subsequently with a dry cleaning cloth. An infrared sensitive tube camera and a white light source (in arena: 4-7 LUX) were mounted to the ceiling above the observation chamber to record and input activity to a computer. Animal behavior was recorded and analyzed using the Noldus Ethovision XT Video Tracking System (Version 3.1; Noldus, Wageningen, The Netherlands). The total distance traveled (cm) was calculated. Data were then exported to data management systems for further analysis and reporting. Phencyclidine (PCP)-Induced Hyperlocomotion in Mice Test compound or solvent was administered at a pre-defined time before measurement (standard: 30 min) to male NMRI mice that were challenged with phencyclidine (PCP; 5 mg/kg, s.c.) 30 min before measurement. Activity was measured for a period of 30 min. Criterion for drug-induced inhibition of hyperlocomotion: total distance<5500 counts (3.9% false positives in controls; n=154). Conditioned Avoidance Response (CAR) Test Apparatus The apparatus consisted of an inner box surrounded by an outer box. The inner box was composed of four walls of transparent, synthetic material (length×width×height: 30×30×30 cm), an open top, and a grid floor made of 15 pairs of iron bars (2 mm diameter; 6 mm inter-bar distance). Odd and even bars were connected with a source of alternative current (1.0 mA; Coulbourn Instruments Solid State Shocker/Distributor), which could be interrupted by a switch. The outer box was composed of the same material (length×width×height: 40×40×36 cm), also with an open top, with a distance of 5 cm between the inner and outer box on all sides. To decrease the amount of environmental stimuli, three walls of the outer box were made non-transparent. The front wall was left transparent to allow the necessary inspection of the animal during the test. The upper edge of the outer and inner box served as a target for the rats on which to jump with fore- and hind-paws, respectively. Avoidance Conditioning and Selection of Animals From their arrival in the laboratory on the experimental day, male Wiga Wistar rats (230±30 g) were housed in individual cages provided with bedding material. […] Experimental Sessions The rats were tested 3 times, i.e. at 60, 90 and 120 min after the injection of test compound or solvent. Latency to avoidance was recorded. […] Sleep Wake Electroencephalography (SW-EEG) in Rats SW-EEG analyses are a highly sensitive read-out of a compound's central functional activity that may provide additional insight in the potential therapeutic application (i.e. via drug classification fingerprinting). […]

rats = test: Sleep wake electroencephalography (SW-EEG) in rats; assay type: in vivo
Experimental: On the day of experiments, the mice were brought into the procedural room. They were housed individually and allowed to acclimate for at least a half hour prior to testing. Although the studies were conducted during the light cycle (from 8:00 to 16:00 h), the procedure room was only sparsely lit (3 to 30 LUX) to provide better contrast for the video tracking. Local lighting was used for the injection procedures. During each trial, an individual mouse was placed in an open field arena (grey PVC cylinder with a height of 40 cm and a diameter of 22.5 cm). Each arena was placed on an infrared LED (8×8 LEDs)-lit box (white PVC squared box; 40×40 cm^2; height 12.5 cm). Each mouse was placed in the center of the arena and allowed to explore freely for 30 min. After each trial, the arena was cleaned with a wet and subsequently with a dry cleaning cloth. An infrared sensitive tube camera and a white light source (in arena: 4-7 LUX) were mounted to the ceiling above the observation chamber to record and input activity to a computer. Animal behavior was recorded and analyzed using the Noldus Ethovision XT Video Tracking System (Version 3.1; Noldus, Wageningen, The Netherlands). The total distance traveled (cm) was calculated. Data were then exported to data management systems for further analysis and reporting. Phencyclidine (PCP)-Induced Hyperlocomotion in Mice Test compound or solvent was administered at a pre-defined time before measurement (standard: 30 min) to male NMRI mice that were challenged with phencyclidine (PCP; 5 mg/kg, s.c.) 30 min before measurement. Activity was measured for a period of 30 min. Criterion for drug-induced inhibition of hyperlocomotion: total distance<5500 counts (3.9% false positives in controls; n=154). […] Latency to avoidance was recorded. […] Sleep Wake Electroencephalography (SW-EEG) in Rats SW-EEG analyses are a highly sensitive read-out of a compound's central functional activity that may provide additional insight in the potential therapeutic application (i.e. via drug classification fingerprinting). […]

[1] = po, compound administered orally (*), read-out: ED50 CAR-Inh. (inhibition of conditioned avoidance response), administered orally

T1 sequence (Q14416 19-872): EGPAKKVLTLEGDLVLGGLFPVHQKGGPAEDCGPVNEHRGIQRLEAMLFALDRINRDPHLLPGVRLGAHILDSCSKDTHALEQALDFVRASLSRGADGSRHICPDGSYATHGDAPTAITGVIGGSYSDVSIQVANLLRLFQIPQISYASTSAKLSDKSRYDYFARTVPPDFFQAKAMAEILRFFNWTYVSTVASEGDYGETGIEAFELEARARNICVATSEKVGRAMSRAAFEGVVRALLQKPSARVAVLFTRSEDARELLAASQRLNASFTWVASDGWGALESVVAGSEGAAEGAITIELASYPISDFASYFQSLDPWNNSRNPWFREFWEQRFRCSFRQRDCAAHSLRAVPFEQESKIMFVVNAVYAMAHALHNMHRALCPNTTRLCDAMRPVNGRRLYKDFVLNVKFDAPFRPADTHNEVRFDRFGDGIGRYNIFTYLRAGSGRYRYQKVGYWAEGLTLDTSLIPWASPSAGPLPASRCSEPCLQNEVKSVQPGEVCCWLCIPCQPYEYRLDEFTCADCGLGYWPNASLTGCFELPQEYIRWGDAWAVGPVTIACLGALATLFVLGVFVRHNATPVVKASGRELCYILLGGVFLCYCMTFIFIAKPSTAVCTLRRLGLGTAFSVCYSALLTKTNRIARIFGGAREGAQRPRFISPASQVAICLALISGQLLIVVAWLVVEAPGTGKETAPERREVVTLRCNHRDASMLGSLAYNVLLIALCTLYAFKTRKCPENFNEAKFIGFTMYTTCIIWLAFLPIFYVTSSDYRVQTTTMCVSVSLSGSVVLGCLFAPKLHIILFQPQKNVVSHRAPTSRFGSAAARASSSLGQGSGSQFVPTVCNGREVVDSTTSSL

With `O[C@H]1CC[C@H](n2ccc3cc(-c4ccn5c(CC6CC6)nnc5c4C(F)(F)F)ccc32)CC1` [Compound 4] the EC50 (human mGluR2 receptor) was 11.2 nM, the “inhibition of PCP-induced hyperlocomotion (in words)” value (male NMRI mice) was “inhibited” and the ED50 (male NMRI mice) was 13.2 mg/kg. For the same compound, the “inhibition of the conditioned avoidance response (in words)” value (male Wiga Wistar rats) was “inhibited”, the ED50 (male Wiga Wistar rats; not marked as oral, read-out: ED50 CAR-Inh. (inhibition of conditioned avoidance response)) was 20 mg/kg and the ED50 (male Wiga Wistar rats; [1]) was ≥ 40 mg/kg. For the same compound, the melting point was 206.9 °C.
In the case of `Clc1c(-c2ccc3c(ccn3-c3cccnc3)c2)ccn2c(CC3CC3)nnc12` [Compound 17, 8-Chloro-3-cyclopropylmethyl-7-[1-(pyridin-3-yl)-1H-indol-5-yl]-[1,2,4]triazolo[4,3-a]pyridine], the EC50 (human mGluR2 receptor) is reported as 79.4 nM, the “inhibition of PCP-induced hyperlocomotion (in words)” value (male NMRI mice) is reported as “inhibited” and the ED50 (male NMRI mice) is reported as 10.7 mg/kg. For the same compound, the “inhibition of the conditioned avoidance response (in words)” value (male Wiga Wistar rats) was “inhibited”, the ED50 (male Wiga Wistar rats; [1]) was 20 mg/kg and the “effect on REM sleep” value (rats; oral administration) was “dose-dependently decrease REM sleep”. The “lowest active dose for decrease of REM sleep” value (rats; p.o.) was 10 mg/kg.
For `Cc1ccc(-n2ccc3cc(-c4ccn5c(CC6CC6)nnc5c4Cl)cc(F)c32)cn1` [Compound 31], the EC50 (human mGluR2 receptor) was 22.9 nM, the “inhibition of PCP-induced hyperlocomotion (in words)” value (male NMRI mice) was “inhibited” and the ED50 (male NMRI mice) was 7.1 mg/kg. The melting point was 243.8 °C.
In the case of `N[C@@]1(C(=O)O)CS(=O)(=O)[C@H]2[C@H](C(=O)O)[C@H]21` [LY404039, reference compound], the “effect on REM sleep” value (rats; 3 mg/kg, p.o.) is reported as “affect REM sleep”.
